Calls of active or inactive are those of the source. The calls are words filed in the database; no cut-off is given here.
Experiments:
[1] = molecular target: T1, Serine/threonine-protein kinase Chk1 (Homo sapiens) (UniProt O14757); test: Inhibition of hydroxyurea-induced CHK1 phosphorylation at S345 residue in human HCT116 cells at 20 uM treated for 8 hrs starting from 24 hrs post hydroxyurea addition by Western blot analysis; type: cell-based
T1 sequence (whole entry): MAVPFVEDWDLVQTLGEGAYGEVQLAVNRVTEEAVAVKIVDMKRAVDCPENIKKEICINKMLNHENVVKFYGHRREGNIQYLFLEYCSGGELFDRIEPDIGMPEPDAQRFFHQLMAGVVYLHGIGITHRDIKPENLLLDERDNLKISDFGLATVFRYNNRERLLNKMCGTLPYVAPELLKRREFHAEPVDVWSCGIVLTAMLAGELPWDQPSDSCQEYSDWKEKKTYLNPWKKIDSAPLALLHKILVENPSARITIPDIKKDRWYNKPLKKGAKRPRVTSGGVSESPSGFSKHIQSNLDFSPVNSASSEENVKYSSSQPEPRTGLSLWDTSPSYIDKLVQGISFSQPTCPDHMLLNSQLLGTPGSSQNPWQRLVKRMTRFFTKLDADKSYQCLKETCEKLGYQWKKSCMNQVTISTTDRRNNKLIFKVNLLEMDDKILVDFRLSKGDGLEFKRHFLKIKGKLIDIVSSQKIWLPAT

[2] = molecular target: T1, Serine/threonine-protein kinase Chk1 (Homo sapiens); test: Inhibition of CHK1 phosphorylation at S296 residue in human FOLFOX-resistant HCT116 cells after 24 hrs by Western blot analysis
[3] = molecular target: T1, Serine/threonine-protein kinase Chk1 (Homo sapiens); test: Inhibition of CHK1 phosphorylation at S296 residue in human FOLFOX-resistant HT-29 cells after 24 hrs by Western blot analysis
[4] = molecular target: RAC-gamma serine/threonine-protein kinase (Homo sapiens) (UniProt Q9Y243); test: Inhibition of human AKT3 assessed as residual activity at 1 uM using KGSGSGRPRTSSFAEG as substrate by [gamma-33P]-ATP assay relative to control
[5] = molecular target: Activin receptor type-1 (Homo sapiens) (UniProt Q04771); test: Inhibition of human ALK2 assessed as residual activity at 1 uM using casein as substrate by [gamma-33P]-ATP assay relative to control
[6] = molecular target: Aurora kinase C (Homo sapiens) (UniProt Q9UQB9); test: Inhibition of human Aurora C assessed as residual activity at 1 uM using [H-LRRASLG] as substrate by [gamma-33P]-ATP assay relative to control
[7] = molecular target: Tyrosine-protein kinase receptor UFO (Homo sapiens) (UniProt P30530); test: Inhibition of human AXL assessed as residual activity at 1 uM using EAIYAAPFAKKK as substrate by [gamma-33P]-ATP assay relative to control
Chain of Tyrosine-protein kinase receptor UFO (Homo sapiens) (P30530 whole entry): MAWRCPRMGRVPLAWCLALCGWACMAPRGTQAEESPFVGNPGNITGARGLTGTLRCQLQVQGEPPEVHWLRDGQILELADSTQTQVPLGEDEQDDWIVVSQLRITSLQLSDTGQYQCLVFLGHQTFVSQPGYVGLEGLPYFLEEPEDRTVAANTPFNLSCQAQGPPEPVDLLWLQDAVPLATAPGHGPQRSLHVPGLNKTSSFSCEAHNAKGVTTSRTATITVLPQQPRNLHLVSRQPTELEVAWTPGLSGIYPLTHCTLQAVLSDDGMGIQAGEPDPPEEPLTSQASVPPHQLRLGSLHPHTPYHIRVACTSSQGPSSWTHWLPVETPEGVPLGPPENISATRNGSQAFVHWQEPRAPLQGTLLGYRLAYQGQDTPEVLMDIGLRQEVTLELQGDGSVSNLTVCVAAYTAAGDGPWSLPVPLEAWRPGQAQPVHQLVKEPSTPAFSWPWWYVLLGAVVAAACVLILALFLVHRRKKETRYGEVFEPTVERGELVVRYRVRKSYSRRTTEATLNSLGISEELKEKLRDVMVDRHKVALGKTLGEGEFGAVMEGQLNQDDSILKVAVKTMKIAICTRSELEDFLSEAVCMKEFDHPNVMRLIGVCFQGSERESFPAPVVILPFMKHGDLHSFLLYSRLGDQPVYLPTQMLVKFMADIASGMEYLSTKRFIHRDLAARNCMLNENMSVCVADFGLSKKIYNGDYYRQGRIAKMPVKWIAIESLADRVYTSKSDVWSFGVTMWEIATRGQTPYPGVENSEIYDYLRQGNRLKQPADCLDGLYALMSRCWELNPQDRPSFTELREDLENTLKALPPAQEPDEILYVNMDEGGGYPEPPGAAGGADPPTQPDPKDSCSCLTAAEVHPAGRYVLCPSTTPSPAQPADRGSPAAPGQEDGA

[8] = molecular target: Protein-tyrosine kinase 6 (Homo sapiens) (UniProt Q13882); test: Inhibition of human BRK assessed as residual activity at 1 uM using poly[Glu:Tyr](4:1) as substrate by [gamma-33P]-ATP assay relative to control
[9] = molecular target: CDK2/Cyclin O (Homo sapiens) (UniProt P24941+P22674); test: Inhibition of human CDK2/cyclin-O assessed as residual activity at 1 uM using histone H1 as substrate by [gamma-33P]-ATP assay relative to control; type: protein-complex assay
[10] = molecular target: Casein kinase II subunit alpha' (Homo sapiens) (UniProt P19784); test: Inhibition of human CK2A2 assessed as residual activity at 1 uM using RRRDDDSDDD as substrate by [gamma-33P]-ATP assay relative to control
[11] = molecular target: Serine/threonine-protein kinase 17A (Homo sapiens) (UniProt Q9UEE5); test: Inhibition of human DRAK1 assessed as residual activity at 1 uM using KKLNRTLSFAEPG as substrate by [gamma-33P]-ATP assay relative to control
Chain of Serine/threonine-protein kinase 17A (Homo sapiens) (Q9UEE5 whole entry): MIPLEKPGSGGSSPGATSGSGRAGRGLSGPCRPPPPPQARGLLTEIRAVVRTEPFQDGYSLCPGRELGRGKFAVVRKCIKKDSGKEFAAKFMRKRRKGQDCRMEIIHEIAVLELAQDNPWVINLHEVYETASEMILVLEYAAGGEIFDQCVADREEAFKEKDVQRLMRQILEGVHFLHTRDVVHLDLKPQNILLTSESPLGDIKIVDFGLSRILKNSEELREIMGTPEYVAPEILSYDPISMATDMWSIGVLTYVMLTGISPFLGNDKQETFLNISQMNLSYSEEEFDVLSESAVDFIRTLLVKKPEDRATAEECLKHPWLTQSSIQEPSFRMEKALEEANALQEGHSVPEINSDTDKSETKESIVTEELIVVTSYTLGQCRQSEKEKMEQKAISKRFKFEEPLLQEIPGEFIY

[12] = molecular target: Tyrosine-protein kinase Lck (Homo sapiens) (UniProt P06239); test: Inhibition of human LCK assessed as residual activity at 1 uM using poly[Glu:Tyr] (4:1) as substrate by [gamma-33P]-ATP assay relative to control
[13] = molecular target: Myosin light chain kinase 2, skeletal/cardiac muscle (Homo sapiens) (UniProt Q9H1R3); test: Inhibition of human MLCK2 assessed as residual activity at 1 uM using KKLNRTLSFAEPG as substrate by [gamma-33P]-ATP assay relative to control
Chain of Myosin light chain kinase 2, skeletal/cardiac muscle (Homo sapiens) (Q9H1R3 whole entry): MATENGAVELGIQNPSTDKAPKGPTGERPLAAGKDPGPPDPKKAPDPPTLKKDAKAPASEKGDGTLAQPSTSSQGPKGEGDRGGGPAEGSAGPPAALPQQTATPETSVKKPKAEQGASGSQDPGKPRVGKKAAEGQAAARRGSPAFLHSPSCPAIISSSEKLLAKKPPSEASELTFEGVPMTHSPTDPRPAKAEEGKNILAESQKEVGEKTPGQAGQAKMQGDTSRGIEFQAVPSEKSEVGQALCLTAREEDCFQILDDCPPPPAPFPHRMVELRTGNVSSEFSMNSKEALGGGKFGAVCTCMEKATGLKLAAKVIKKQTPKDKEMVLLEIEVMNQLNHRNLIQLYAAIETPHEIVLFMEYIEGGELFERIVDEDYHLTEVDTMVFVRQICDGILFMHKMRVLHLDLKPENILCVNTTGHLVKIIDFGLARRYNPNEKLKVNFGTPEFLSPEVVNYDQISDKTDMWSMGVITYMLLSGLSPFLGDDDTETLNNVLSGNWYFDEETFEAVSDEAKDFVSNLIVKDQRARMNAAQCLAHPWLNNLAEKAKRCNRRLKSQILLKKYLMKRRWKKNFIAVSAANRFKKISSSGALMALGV

[14] = molecular target: MAP kinase-interacting serine/threonine-protein kinase 2 (Homo sapiens) (UniProt Q9HBH9); test: Inhibition of human MNK2 assessed as residual activity at 1 uM using MBP as substrate by [gamma-33P]-ATP assay relative to control
Chain of MAP kinase-interacting serine/threonine-protein kinase 2 (Homo sapiens) (Q9HBH9 whole entry, looked up): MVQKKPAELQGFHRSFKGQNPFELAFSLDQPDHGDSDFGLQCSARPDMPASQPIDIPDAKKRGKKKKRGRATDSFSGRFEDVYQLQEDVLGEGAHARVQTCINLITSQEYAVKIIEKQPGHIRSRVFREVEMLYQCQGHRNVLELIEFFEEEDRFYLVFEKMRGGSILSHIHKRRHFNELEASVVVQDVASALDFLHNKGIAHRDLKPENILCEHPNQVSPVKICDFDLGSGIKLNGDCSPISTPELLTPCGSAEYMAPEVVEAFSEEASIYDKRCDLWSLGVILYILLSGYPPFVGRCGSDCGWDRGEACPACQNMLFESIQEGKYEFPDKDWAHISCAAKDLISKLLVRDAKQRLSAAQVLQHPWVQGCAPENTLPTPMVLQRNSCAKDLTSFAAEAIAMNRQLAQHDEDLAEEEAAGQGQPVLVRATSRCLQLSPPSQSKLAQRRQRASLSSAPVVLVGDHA

[15] = molecular target: Serine/threonine-protein kinase TAO3 (Homo sapiens) (UniProt Q9H2K8); test: Inhibition of human TAOK3 assessed as residual activity at 1 uM using MBP as substrate by [gamma-33P]-ATP assay relative to control
Chain of Serine/threonine-protein kinase TAO3 (Homo sapiens) (Q9H2K8 whole entry): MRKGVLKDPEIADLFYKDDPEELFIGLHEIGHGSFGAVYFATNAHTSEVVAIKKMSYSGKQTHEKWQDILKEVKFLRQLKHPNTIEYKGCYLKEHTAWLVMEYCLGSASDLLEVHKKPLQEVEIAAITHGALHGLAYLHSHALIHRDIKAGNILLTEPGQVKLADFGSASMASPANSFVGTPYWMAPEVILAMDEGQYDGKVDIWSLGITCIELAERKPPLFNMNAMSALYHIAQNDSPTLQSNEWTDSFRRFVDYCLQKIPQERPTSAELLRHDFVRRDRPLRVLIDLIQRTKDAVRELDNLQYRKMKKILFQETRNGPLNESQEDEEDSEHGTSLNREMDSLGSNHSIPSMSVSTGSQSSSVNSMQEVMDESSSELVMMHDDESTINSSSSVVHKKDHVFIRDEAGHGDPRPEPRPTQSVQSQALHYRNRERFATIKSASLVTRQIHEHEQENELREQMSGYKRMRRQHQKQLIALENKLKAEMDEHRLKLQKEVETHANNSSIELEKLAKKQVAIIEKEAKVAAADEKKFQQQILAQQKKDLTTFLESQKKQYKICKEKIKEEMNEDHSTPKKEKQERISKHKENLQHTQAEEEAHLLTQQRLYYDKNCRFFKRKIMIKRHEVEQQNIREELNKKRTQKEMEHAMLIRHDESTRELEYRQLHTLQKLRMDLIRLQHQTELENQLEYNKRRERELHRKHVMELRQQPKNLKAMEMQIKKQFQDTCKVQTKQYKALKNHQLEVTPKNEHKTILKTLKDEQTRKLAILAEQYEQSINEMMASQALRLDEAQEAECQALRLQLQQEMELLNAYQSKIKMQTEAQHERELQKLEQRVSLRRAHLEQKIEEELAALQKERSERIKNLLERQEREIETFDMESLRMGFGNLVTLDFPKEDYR

[16] = molecular target: Serine/threonine-protein kinase ULK3 (Homo sapiens) (UniProt Q6PHR2); test: Inhibition of human ULK3 assessed as residual activity at 1 uM using MBP as substrate by [gamma-33P]-ATP assay relative to control
[17] = molecular target: Serine/threonine-protein kinase WNK3 (Homo sapiens, UniProt Q9BYP7); test: Inhibition of human WNK3 assessed as residual activity at 1 uM using MBP as substrate by [gamma-33P]-ATP assay relative to control
Chain of Serine/threonine-protein kinase WNK3 (Q9BYP7 whole entry): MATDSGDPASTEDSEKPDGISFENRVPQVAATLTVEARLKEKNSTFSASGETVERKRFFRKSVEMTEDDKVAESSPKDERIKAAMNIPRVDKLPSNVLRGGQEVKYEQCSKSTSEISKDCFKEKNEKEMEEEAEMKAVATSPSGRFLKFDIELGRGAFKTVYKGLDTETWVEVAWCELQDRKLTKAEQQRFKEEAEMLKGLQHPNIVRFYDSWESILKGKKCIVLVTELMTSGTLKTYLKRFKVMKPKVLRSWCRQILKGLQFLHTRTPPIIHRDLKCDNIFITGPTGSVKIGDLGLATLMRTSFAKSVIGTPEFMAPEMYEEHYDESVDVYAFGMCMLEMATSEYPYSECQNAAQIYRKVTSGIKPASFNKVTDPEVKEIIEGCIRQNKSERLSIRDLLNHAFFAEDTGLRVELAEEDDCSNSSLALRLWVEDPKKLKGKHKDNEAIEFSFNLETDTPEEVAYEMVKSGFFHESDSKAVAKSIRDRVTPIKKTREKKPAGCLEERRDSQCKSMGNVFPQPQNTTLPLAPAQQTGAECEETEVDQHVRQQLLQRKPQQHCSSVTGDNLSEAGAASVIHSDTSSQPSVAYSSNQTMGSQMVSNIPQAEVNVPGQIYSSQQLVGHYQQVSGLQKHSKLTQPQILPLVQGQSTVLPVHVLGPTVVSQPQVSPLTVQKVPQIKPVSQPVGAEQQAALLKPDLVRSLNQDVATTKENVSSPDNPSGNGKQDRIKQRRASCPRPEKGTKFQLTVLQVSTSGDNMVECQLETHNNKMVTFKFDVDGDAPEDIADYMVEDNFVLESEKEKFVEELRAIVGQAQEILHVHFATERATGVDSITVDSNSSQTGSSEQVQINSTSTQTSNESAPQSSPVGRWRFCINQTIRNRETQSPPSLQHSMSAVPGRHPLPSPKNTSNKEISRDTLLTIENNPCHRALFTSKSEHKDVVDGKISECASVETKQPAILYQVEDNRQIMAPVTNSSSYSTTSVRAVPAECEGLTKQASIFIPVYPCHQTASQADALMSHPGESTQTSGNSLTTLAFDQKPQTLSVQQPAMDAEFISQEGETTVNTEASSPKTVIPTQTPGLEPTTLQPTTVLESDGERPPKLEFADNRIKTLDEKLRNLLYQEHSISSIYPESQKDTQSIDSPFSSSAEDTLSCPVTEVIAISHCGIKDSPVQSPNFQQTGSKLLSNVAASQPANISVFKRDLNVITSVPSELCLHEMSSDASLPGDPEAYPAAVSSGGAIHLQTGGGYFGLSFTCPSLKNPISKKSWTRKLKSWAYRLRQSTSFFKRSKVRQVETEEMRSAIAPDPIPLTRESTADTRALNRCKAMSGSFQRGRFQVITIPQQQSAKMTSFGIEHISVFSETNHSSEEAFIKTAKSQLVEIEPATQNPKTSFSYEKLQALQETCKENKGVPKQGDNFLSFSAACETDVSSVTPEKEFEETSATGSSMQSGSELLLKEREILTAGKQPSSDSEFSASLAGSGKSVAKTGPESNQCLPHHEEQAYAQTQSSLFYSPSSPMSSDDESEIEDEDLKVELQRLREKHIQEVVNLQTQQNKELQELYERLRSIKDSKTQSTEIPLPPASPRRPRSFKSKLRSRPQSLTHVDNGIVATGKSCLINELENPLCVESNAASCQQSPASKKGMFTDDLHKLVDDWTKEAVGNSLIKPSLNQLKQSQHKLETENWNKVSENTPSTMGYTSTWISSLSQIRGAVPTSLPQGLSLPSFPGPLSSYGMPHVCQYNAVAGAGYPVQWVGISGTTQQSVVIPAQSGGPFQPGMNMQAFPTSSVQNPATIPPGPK

[18] = molecular target: Mitogen-activated protein kinase kinase kinase 19 (Homo sapiens) (UniProt Q56UN5); test: Inhibition of human YSK4 assessed as residual activity at 1 uM using MBP as substrate by [gamma-33P]-ATP assay relative to control
[19] = molecular target: Tyrosine-protein kinase ZAP-70 (Homo sapiens) (UniProt P43403); test: Inhibition of human ZAP70 assessed as residual activity at 1 uM using poly[Glu:Tyr] (4:1) as substrate by [gamma-33P]-ATP assay relative to control
[20] = molecular target: Tyrosine-protein kinase Blk (Homo sapiens) (UniProt P51451); test: Inhibition of human BLK assessed as residual activity at 1 uM using poly[Glu:Tyr](4:1) as substrate by [gamma-33P]-ATP assay relative to control
[21] = molecular target: CDK7/Cyclin H/MNAT1 (Homo sapiens) (UniProt P51946+P50613+P51948); test: Inhibition of human CDK7/cyclin-H/MNAT1 assessed as residual activity at 1 uM using MBP as substrate by [gamma-33P]-ATP assay relative to control; type: protein-complex assay
[22] = molecular target: Serine/threonine-protein kinase/endoribonuclease IRE1 (Homo sapiens) (UniProt O75460); test: Inhibition of human ERN1 assessed as residual activity at 1 uM using MBP as substrate by [gamma-33P]-ATP assay relative to control
[23] = molecular target: Serine/threonine-protein kinase Nek7 (Homo sapiens, UniProt Q8TDX7); test: Inhibition of human NEK7 assessed as residual activity at 1 uM using casein as substrate by [gamma-33P]-ATP assay relative to control
[24] = molecular target: Serine/threonine-protein kinase N3 (Homo sapiens) (UniProt Q6P5Z2); test: Inhibition of human PKN3 assessed as residual activity at 1 uM using KKLNRTLSVA as substrate by [gamma-33P]-ATP assay relative to control

| SMILES | inhibition [2] | inhibition [3] | Activity [5] | Activity [6] | Activity [7] | Activity [9] | Activity [10] | Activity [11] | Activity [13] | Activity [14] | Activity [15] | Activity [17] | Activity [18] | Activity [19] | also measured |
| --- | --- | --- | --- | --- | --- | --- | --- | --- | --- | --- | --- | --- | --- | --- | --- |
| C(=C\c1ccccc1)/C[N+]12CN3CN(CN(C3)C1)C2 | Dose-dependent effect | Dose-dependent effect | 96.6 to 96.7% | 95.8 to 96.8% | 94.8 to 94.9% | 94.1 to 96.4% | 122% | 92.8 to 95.6% | 91.7 to 94.8% | 93 to 95.7% | 92.8 to 93.1% | 92.3 to 93% | 93.8 to 96.3% | 94.2 to 96.3% | inhibition [1]: Active; Activity [4]: 95.9 to 96%; Activity [8]: 95.2 to 95.6%; Activity [12]: 94.2 to 95.5%; Activity [16]: 90.5 to 93.8% |
| ClC/C=C/C[N+]12CN3CN(CN(C3)C1)C2 | Dose-dependent effect | Dose-dependent effect | 94.7 to 94.8% | 87.2 to 91.4% | 95.7 to 96.5% | 96 to 96.3% | 117 to 118% | 90.9 to 92.8% | 93.7 to 95.3% | 91.2 to 92.6% | 94.1 to 94.7% | 90.2 to 91.3% | 94 to 94.8% | 90.6 to 91.5% | Activity [20]: 93.1 to 94.8%; Activity [21]: 97.4 to 97.9%; Activity [22]: 92.5 to 94.8%; Activity [23]: 94.2 to 95.6%; Activity [24]: 92.3 to 92.9% |

From ChEMBL document CHEMBL4325871 (Eur J Med Chem, 2019)
